For assay [1], the system named is Icthyobodo necator. Description: oral treatment of Ichthyobodosis in rainbow trout, PTSO administered into feed. In kind it is in vivo. Conditions: for % infestation High / % infestation Low / % infestation minimal / % infestation Moderate / % infestation zero: 24 hours after end of assay; for % infestation High: High = more than 50 individuals per microscope field; for % infestation Low: Low = more than 1 individual, less than 10 per field; for % infestation minimal: Minimal = only 1 individual detected; for % infestation Moderate: Moderate = 10 to 50 per field; for % infestation zero: Zero = not detected. The protocol:
In this example, a study of oral treatments of Ichthyobodosis in rainbow trout with different concentrations of Propyl propane thiosulphonate (PTSO) administered into feed was conducted.
Rainbow trout Oncornynchus mykiss were obtained from a local fish farm and acclimatized for at least 10 days before assay in 100 l tanks with aeration in closed systems of water (15±2° C., pH 7-7.5). The natural light-dark cycle was simulated (12 h light: 12 h dark). Fish were fed twice per day with a commercial feed (EFICO, Biomar, Spain). Parasite-free fish were experimentally infested by holding the parasite-free fish 25 days in a 100 l tank that also contained fish showing high-intensity infestation (20 uninfected fish to 10 infected fish).
Fish were anaesthetized by immersion in bath with 100 ppm of Tricaine methanesulfonate until respiration became weak. A mucus sample was then taken by gently scraping the body surface after examination of a sample area of 24×32 mm. The sample was mixed with 30 μl of distilled water on a slide, cover-slipped and examined to optic microscopy (400×).
Each treatment was assayed in 20 infected fish maintained in 100 L tanks with aeration in closed systems of water. The fish received feed containing three different treatments. The first group received a diet with 100 ppm of Propyl propane thiosulphonate (PTSO), the second received a diet supplemented with 300 ppm of PTSO, and the third received a diet with 300 ppm of metronidazole. All treatments were applied during a 10 day period. In all cases, feed was supplied at 2% of total body weight per day. Simultaneously, a positive control assay (also on 20 infected fish treated identically, but without any PTSO) and negative control assay (with 20 uninfected animals) were performed. Tanks conditions were identical to those during the acclimatization period.
Throughout the assay period the fish were monitored regularly to ensure that the fish were eating the food, and to check for signs of toxicity.
Of note, infestation intensity was based on a 5-point scale, as follows: Zero equals Ichthyobodo necator not being detected in the sample; Minimal equals only 1 individual of I. necator being detected in the sample; Low equals more than 1 individual of parasite being detected in the sample, the average number per microscope field being less than 10; Moderate equals an average number of individuals per microscope field of 10 to 50; High equals an average number of individuals per microscope field of more than 50.

Assay [2] deals with L3 larvae of Anisakis type I. Conditions: 200, 300 and 500 ppm, in vitro, 36° C. The source says: (§1) The objective of example 3 was to examine the activity of propyl propane thiosulphonate (PTSO) and propyl propane thiosulfinate (PTS) against L3 larvae of type I Anisakis and Hysterotylacium aduncum to explore the possible use of these compounds for prophylaxis treatments.
(§2) L3 of Anisakis type I and Hysterotylacium aduncum were collected by dissecting the fish Micromesistius poutassou (blue whiting) and Trachurus trachurus (mackerel) fished in the Cantabric sea, and selecting only larvae with a length greater than (>) 2.0 cm in the case of Anisakis, and greater than 0.8 cm for Hysterotylacium.
(§3) Larvae were axenised in antibiotic solution (Iglesias et al., 1997), introduced into polystyrene plate wells with 2 ml of sterile solution of 0.9% NaCl and the different concentrations of PTS alone, PTSO alone, and both PTS and PTSO (75, 200, 300 and 500 ppm) and then incubated at 36° C. in a 5% CO2 atmosphere. As controls, larvae were assayed without test compound under identical experimental conditions, and using only the solvent DMSO 1% (Dimethyl sulfoxide). Larvae were examined under stereoscopic microscope at 4, 8, 24, and 48 hours to test the biocidal effect of the compounds. Larvae with no mobility at all were considered dead. Each dilution was tested three times on larvae from fish captured on different days.

Assay [3] relates to L3 larvae of Hysterotylacium aduncum. Conditions: 75 ppm, in vitro, 36° C.
Source text: as §1, §2, §3

The values that follow come from patent US10143198B2, “Use of propyl propane thiosulfinate and propyl propane thiosulfonate for the prevention and reduction of parasites in aquatic animals” (Investfood, LLC, priority 2013, dated 2018).

Take `Cc1ncc([N+](=O)[O-])n1CCO` [Metronidazole, metronidazole, reference compound]: in assay [1] (300 ppm in feed for 10 days), the “% infestation High” value stood at 15%, the “% infestation Low” value came out at 7%, the “% infestation minimal” value is given as 12% and the “% infestation Moderate” value stood at 20%. Further, the “% infestation zero” value in assay [1] (300 ppm in feed for 10 days) turned out to be 46%.
Take `CCCSS(=O)(=O)CCC` [PTSO, propyl propane thiosulfonate]: the “anti-parasitic activity (mortality)” value in assay [2] was “significant anti-parasitic activity”. Further, in assay [3], the “anti-parasitic activity (mortality)” value is listed as “significant anti-parasitic activity”. In addition, in assay [1] (100 ppm in feed for 10 days), the “% infestation High” value stood at 35%, the “% infestation Low” value is reported as 18%, the “% infestation minimal” value was determined as 12% and the “% infestation Moderate” value was 30%. The “% infestation zero” value in assay [1] (100 ppm in feed for 10 days) came out at 5%. In assay [1] (300 ppm in feed for 10 days), the “% infestation High” value was determined as 25%, the “% infestation Low” value was 8%, the “% infestation minimal” value came out at 5% and the “% infestation Moderate” value is listed as 7%. In addition, the “% infestation zero” value in assay [1] (300 ppm in feed for 10 days) is recorded as 55%. Besides, the “antiparasitic activity, infestation intensity” value in assay [1] (oral in feed) is recorded as “significant reduction of infestation intensity”.
For `CCCS[S+]([O-])CCC` (centres unmarked) [PTS, propyl propane thiosulfinate], the “anti-parasitic activity (mortality)” value in assay [2] and in assay [3] was “significant anti-parasitic activity” each time.
